# Assay results from ChEMBL document CHEMBL4818999, “Pyrido[2, 3-d]pyrimidin-7(8H)-ones as new selective orally bioavailable Threonine Tyrosine Kinase (TTK) inhibitors” (Eur J Med Chem, 2021).
# Legend:
# [1] = biological target: MAP/microtubule affinity-regulating kinase 3 (Homo sapiens, UniProt P27448); conditions: dose 100.0 nM
# NCI-H460 = experiment: Antiproliferative activity against human NCI-H460 cells assessed as growth inhibition after 96 hrs by CCK8 assay; type: functional, cell-based; conditions: NCI-H460, 96 h
# [2] = biological target: T1, Dual specificity protein kinase TTK (Homo sapiens, UniProt P33981); experiment: Inhibition of recombinant full-length human TTK using MBP as substrate incubated for 40 mins in presence of [gamma33P]ATP by scintillation counting based radiometry assay relative to control
# T1 sequence (P33981 whole entry): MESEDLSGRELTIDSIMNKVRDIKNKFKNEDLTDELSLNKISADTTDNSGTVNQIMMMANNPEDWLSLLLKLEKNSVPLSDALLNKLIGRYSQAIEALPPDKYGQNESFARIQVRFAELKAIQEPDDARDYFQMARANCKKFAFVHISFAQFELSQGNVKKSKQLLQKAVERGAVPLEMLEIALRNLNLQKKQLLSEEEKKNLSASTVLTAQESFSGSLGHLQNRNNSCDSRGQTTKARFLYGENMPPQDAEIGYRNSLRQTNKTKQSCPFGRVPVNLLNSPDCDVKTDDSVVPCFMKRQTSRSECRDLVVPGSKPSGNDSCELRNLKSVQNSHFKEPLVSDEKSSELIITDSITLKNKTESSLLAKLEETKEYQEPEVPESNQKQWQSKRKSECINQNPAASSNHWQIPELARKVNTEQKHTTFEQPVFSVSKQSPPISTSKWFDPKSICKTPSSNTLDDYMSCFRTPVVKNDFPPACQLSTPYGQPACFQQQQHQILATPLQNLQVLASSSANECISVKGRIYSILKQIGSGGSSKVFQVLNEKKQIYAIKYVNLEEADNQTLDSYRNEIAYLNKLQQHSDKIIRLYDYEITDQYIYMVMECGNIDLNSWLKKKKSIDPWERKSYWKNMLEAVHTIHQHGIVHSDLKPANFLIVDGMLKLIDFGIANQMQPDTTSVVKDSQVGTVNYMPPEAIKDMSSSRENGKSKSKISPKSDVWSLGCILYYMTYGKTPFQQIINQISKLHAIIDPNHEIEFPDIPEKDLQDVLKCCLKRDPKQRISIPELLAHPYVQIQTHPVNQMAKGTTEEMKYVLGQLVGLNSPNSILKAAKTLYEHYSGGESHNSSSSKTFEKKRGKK
# [3] = biological target: Phosphatidylinositol 4,5-bisphosphate 3-kinase catalytic subunit delta isoform (Homo sapiens) (UniProt O00329); conditions: dose 100.0 nM
# Phosphatidylinositol 4,5-bisphosphate 3-kinase catalytic subunit delta isoform (Homo sapiens), sequence (O00329 whole entry, canonical isoform): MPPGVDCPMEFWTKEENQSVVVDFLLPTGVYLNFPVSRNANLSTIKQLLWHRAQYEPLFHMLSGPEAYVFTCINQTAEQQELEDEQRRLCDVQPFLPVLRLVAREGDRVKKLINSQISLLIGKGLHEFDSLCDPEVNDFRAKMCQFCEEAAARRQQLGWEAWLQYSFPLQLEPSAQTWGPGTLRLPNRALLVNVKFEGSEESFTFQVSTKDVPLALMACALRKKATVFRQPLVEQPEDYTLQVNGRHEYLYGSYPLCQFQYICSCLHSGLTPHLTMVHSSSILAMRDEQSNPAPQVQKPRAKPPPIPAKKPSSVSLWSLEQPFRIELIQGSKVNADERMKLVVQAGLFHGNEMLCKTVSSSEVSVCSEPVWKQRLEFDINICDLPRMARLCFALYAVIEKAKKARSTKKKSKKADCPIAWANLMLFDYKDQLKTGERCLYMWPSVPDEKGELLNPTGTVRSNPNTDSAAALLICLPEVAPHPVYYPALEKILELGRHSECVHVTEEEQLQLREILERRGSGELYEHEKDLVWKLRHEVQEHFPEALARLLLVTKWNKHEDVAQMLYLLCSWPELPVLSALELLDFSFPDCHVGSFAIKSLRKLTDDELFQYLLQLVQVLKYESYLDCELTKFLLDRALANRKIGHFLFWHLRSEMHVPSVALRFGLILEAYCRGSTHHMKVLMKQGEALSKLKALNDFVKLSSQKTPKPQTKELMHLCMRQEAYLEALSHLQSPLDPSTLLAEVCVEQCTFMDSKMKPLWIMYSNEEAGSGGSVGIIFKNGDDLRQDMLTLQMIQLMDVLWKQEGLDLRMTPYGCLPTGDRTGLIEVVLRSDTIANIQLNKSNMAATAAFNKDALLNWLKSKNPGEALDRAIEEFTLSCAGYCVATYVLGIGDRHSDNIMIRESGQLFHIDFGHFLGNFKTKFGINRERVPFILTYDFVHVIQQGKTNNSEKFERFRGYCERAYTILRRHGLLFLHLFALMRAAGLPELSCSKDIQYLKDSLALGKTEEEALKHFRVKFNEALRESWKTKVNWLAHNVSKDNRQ
# Description: Inhibition of human PIK3CD at 100 nM by scintillation counting based direct-filter Binding radiometric assay relative to control
# [4] = biological target: Maternal embryonic leucine zipper kinase (Homo sapiens) (UniProt Q14680); conditions: dose 100.0 nM
# [5] = biological target: Phosphatidylinositol 3-kinase C2 domain-containing subunit gamma (Homo sapiens, UniProt O75747); experiment: Binding affinity to human partial length PIK3C2G (M1 to I1446 residues) expressed in mammalian expression system by active site-directed competition binding based Kinomescan method
# Phosphatidylinositol 3-kinase C2 domain-containing subunit gamma, sequence (O75747 whole entry, the tested form may be a part): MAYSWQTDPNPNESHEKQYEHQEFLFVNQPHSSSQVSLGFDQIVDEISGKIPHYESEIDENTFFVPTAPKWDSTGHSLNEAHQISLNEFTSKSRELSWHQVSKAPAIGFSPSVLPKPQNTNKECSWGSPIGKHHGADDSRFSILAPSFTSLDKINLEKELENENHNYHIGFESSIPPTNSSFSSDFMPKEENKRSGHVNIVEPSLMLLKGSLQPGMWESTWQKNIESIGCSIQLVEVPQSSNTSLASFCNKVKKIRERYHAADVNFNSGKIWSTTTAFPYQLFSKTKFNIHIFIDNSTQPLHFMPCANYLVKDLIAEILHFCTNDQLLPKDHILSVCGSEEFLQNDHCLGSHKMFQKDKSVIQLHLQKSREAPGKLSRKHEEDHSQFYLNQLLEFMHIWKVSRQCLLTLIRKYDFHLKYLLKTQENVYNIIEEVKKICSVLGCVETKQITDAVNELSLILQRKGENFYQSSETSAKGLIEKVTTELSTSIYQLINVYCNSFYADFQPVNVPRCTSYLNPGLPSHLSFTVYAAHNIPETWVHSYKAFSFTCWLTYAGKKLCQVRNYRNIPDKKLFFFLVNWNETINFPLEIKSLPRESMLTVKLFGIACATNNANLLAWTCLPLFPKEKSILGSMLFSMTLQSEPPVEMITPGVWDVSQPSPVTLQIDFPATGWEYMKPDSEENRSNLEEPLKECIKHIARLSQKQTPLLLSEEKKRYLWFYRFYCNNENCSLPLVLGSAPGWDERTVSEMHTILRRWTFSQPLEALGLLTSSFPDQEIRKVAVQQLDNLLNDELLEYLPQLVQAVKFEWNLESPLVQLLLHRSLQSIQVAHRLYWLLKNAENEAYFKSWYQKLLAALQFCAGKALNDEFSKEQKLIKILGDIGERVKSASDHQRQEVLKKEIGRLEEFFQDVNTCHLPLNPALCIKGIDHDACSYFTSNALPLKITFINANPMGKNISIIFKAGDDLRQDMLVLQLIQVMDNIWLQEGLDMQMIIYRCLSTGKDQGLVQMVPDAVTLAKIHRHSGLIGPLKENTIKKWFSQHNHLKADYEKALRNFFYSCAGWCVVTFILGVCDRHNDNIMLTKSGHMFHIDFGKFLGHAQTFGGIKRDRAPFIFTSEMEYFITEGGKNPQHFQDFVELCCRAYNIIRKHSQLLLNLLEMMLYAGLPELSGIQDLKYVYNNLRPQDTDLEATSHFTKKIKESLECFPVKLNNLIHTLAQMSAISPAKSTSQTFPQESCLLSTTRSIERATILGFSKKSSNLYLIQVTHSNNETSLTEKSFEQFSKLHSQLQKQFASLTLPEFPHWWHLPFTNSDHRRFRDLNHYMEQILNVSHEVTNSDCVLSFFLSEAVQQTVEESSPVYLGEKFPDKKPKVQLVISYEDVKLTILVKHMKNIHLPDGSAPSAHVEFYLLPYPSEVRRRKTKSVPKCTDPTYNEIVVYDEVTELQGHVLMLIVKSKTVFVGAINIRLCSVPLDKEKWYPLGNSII
# HCT-116 [6] = experiment: Induction of apoptosis in human HCT-116 cells assessed as early apoptotic cells at 111.1 nM incubated for 48 hrs by annexin V and 7-AAD staining based flow cytometry analysis (reference value: 8.12 %); type: functional
# [7] = biological target: Death-associated protein kinase 1 (Homo sapiens) (UniProt P53355); conditions: dose 100.0 nM
# Death-associated protein kinase 1 (Homo sapiens), sequence (P53355 whole entry, looked up): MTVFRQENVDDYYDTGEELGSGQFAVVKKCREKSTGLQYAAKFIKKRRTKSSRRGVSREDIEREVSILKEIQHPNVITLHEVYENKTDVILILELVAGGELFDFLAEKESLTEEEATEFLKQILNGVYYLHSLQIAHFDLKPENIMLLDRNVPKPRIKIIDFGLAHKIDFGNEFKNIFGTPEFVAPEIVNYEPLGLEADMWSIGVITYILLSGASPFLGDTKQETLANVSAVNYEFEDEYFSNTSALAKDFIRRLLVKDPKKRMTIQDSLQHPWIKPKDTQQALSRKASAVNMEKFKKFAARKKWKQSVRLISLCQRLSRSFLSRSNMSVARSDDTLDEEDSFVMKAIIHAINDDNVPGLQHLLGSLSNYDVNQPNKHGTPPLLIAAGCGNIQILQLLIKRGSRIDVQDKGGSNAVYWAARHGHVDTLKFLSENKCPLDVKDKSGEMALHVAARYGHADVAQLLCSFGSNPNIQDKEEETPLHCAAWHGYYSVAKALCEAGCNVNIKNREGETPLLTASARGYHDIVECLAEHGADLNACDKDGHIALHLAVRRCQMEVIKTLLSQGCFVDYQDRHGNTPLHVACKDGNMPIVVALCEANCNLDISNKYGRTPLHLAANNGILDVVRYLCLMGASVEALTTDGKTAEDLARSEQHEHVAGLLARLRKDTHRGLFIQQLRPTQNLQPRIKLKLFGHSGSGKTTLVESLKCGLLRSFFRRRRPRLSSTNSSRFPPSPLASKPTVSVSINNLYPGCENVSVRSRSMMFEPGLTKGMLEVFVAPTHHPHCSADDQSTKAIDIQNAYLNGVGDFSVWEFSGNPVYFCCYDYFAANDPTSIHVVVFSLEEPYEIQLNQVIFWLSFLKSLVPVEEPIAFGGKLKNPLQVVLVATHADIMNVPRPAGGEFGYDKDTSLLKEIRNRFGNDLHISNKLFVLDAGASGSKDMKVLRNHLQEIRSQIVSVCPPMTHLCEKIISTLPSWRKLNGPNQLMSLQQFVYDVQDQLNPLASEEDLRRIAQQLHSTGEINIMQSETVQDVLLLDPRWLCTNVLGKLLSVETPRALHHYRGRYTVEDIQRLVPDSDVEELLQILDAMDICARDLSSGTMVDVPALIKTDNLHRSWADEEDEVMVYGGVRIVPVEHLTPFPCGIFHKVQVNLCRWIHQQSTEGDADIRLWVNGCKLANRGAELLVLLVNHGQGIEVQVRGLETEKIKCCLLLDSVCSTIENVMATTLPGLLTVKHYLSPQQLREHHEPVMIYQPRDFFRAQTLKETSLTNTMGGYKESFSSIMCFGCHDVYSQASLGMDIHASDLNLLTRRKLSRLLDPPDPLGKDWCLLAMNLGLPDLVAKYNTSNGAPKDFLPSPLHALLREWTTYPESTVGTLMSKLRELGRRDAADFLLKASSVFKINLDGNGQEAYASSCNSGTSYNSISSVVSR
# [8] = biological target: Dual specificity protein kinase TTK (Homo sapiens) (UniProt P33981); conditions: dose 100.0 nM, time 40.0 min
# [9] = biological target: Myotonin-protein kinase (Homo sapiens) (UniProt Q09013); conditions: dose 100.0 nM
# Myotonin-protein kinase (Homo sapiens), sequence (Q09013 whole entry): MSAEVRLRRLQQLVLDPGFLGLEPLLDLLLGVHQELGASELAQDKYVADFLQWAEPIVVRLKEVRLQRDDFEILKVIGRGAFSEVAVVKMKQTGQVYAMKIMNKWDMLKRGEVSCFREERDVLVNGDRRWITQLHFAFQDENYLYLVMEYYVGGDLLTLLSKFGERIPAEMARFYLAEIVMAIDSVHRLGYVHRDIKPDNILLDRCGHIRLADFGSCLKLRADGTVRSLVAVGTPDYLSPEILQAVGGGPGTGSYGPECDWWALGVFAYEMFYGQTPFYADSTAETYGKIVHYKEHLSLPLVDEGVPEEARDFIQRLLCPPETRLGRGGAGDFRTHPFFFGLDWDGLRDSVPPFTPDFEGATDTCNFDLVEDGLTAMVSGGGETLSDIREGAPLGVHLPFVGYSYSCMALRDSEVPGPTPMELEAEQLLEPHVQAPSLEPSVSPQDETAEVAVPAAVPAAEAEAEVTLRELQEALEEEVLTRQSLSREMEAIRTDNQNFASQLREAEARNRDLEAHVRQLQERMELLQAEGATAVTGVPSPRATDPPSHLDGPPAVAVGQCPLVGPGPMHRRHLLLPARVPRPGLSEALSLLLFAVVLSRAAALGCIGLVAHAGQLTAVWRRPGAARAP
# Description: Inhibition of human recombinant DMPK (1 to 549) using Axltide at 100 nM direct filter-binding radiometric kinase activity assay relative to control
# [10] = biological target: Death-associated protein kinase 3 (Homo sapiens, UniProt O43293); conditions: dose 100.0 nM
# Description: Inhibition of human DAPK3 at 100 nM by direct-filter Binding radiometric assay relative to control
# [11] = biological target: Phosphorylase b kinase gamma catalytic chain, liver/testis isoform (Homo sapiens) (UniProt P15735); conditions: dose 100.0 nM
# Phosphorylase b kinase gamma catalytic chain, liver/testis isoform (Homo sapiens), sequence (P15735 whole entry, the tested form may be a part, canonical isoform): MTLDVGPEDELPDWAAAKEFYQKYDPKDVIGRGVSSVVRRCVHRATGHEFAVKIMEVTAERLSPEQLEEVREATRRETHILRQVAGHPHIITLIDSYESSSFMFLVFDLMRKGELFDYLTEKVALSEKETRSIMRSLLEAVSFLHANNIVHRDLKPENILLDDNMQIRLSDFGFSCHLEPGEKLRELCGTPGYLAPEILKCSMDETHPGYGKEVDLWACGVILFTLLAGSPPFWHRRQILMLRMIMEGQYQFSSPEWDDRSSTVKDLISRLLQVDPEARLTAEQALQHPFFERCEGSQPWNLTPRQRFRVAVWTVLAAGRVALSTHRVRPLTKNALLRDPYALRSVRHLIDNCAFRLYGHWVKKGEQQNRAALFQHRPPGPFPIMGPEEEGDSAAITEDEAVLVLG
# Description: Inhibition of human recombinant PHKG2 using ZIPtide at 100 nM direct filter-binding radiometric kinase activity assay relative to control
# [12] = biological target: Phosphatidylinositol 3-kinase C2 domain-containing subunit gamma (Homo sapiens) (UniProt O75747); conditions: dose 100.0 nM
# Phosphatidylinositol 3-kinase C2 domain-containing subunit gamma (Homo sapiens), sequence (O75747 whole entry, the tested form may be a part): as the sequence (O75747 whole entry, the tested form may be a part) above
# Description: Inhibition of PIK3C2G (unknown origin) at 100 nM direct filter-binding radiometric kinase activity assay relative to control
# HCT-116 [13] = experiment: Induction of apoptosis in human HCT-116 cells assessed as late apoptotic cells at 333.3 nM incubated for 48 hrs by annexin V and 7-AAD staining based flow cytometry analysis (reference value: 1.20 %); type: functional
# [14] = biological target: T1, Dual specificity protein kinase TTK; experiment: Binding affinity to wild-type human partial length TTK (N505 to V798 residues) expressed in bacterial expression system by active site-directed competition binding based Kinomescan method
# [15] = biological target: NUAK family SNF1-like kinase 2 (Homo sapiens) (UniProt Q9H093); conditions: dose 100.0 nM
# Homo sapiens = species: Homo sapiens; conditions: dose 100.0 nM
# Description: Inhibition of PIPK5 (unknown origin) at 100 nM direct filter-binding radiometric kinase activity assay relative to control
# HCT-116 [16] = experiment: Antitumor activity at human HCT-116 cells xenografted in CB17-SCID mouse assessed as tumor growth inhibition at 50 mg/kg, po administered daily, 2days on/ 4 days off and measured every 2 days for 16 days relative to control; type: functional; conditions: HCT-116, po, 384 h, time 16 day, read-out: TGI
structure (smiles),measurement,setting,value
COc1cc(N2CCN(C)CC2)ccc1Nc1ncc2c(C)cc(=O)n([C@H]3CC[C@@H](NC(=O)C4CCCCC4)CC3)c2n1,inhibition,[1],92%
same,IC50,NCI-H460,1.09 µM
same,IC50,[2],0.023 µM
same,inhibition,[3],100%
same,inhibition,[4],77%
same,Kd,[5],> 1 µM
same,Activity,HCT-116 [6],4.46%
same,inhibition,[7],85%
same,inhibition,[8],98.1%
same,inhibition,[9],81%
same,inhibition,[10],94.5%
same,inhibition,[11],87%
same,inhibition,[12],94.4%
same,Activity,HCT-116 [13],2.04%
same,Kd,[14],0.00015 µM
same,inhibition,[15],84%
same,inhibition,Homo sapiens,77%
same,inhibition in vivo at 50 mg/kg,HCT-116 [16],29%
